The experiment has as its target T1, hmGluR4 (Homo sapiens, UniProt Q14833).
T1 construct: host or cells: HEK293T
Description: HEK-293 mGluR4 cells cAMP assay with EC20 L-Glutamate (HTRF). The class given is cell-based. The note with it: positive allosteric activity at EC20 L-Glutamate, 10 μM Forskolin, HEK293T mGluR4 cells, cAMP HTRF; read-out: hrmGluR4/HEK293T-hmGluR4 (EC50). An outline of the steps:
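PAM mode in mGluR4 HEK293T suspension cells, glutamine-starved overnight; 10 μM forskolin (final) with EC20 L-glutamate (2.3 μM), 2000 cells/well, 30 min at 37 °C. cAMP measured by two-step HTRF after 60 min at room temperature. Basal control EC20 glutamate; EC100 400 μM glutamate (2×).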

A value given as a limit tells only on which side of the number the result lay.

T1 sequence (Q14833 33-912): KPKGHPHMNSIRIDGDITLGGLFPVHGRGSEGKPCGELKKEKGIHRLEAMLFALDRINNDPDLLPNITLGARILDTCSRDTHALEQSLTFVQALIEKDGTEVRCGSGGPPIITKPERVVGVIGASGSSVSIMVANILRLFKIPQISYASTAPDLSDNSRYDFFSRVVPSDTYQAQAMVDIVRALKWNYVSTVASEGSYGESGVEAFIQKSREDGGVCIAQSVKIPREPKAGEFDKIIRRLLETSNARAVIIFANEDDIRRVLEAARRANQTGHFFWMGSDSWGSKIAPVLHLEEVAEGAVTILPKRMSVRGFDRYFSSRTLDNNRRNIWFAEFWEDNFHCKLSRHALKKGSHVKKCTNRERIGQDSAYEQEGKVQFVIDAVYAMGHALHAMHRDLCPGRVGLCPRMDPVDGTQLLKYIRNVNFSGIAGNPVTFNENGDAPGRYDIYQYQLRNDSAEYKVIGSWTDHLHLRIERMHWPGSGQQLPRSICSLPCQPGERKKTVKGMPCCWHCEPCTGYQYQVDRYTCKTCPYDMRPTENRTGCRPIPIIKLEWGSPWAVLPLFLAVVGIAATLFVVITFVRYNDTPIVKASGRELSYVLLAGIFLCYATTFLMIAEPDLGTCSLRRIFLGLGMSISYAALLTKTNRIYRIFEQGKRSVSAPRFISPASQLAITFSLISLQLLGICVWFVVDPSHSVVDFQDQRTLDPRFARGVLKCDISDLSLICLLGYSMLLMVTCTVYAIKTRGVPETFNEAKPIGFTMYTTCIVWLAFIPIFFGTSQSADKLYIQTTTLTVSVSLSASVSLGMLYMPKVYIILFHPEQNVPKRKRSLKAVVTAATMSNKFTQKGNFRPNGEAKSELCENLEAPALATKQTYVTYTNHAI

For the molecule `O=C1c2ccc(C(F)(F)F)cc2NC2(CCN(Cc3cccc(Cl)c3)CC2)N1c1ccc(OC(F)(F)F)cc1` [Compound 10, 1-(3-Chlorobenzyl)-3′-(4-(trifluoromethoxy)phenyl)-7′-(trifluoromethyl)-1′H-spiro[piperidine-4,2′-quinazolin]-4′(3′H)-one], the EC50 is less than 1 µM. The figure for `CCc1ccc2c(c1)NC1(CCN(Cc3ccc(F)c(F)c3)CC1)N(c1ccc(OC)cc1)C2=O` [Compound 63, 1-(3,4-Difluorobenzyl)-7′-ethyl-3′-(4-methoxyphenyl)-1′H-spiro[piperidine-4,2′-quinazolin]-4′(3′H)-one] is less than 1 µM; for `CC(=O)c1cc2c(cc1Br)C(=O)N(c1ccc(OC(F)(F)F)cc1)C1(CCN(Cc3ccc(F)c(F)c3)CC1)N2` [Compound 12, 7′-Acetyl-6′-bromo-1-(3,4-difluorobenzyl)-3′-(4-(trifluoromethoxy)phenyl)-1′H-spiro[piperidine-4,2′-quinazolin]-4′(3′H)-one] it is less than 1 µM.

The values above are taken from US9708321B2, “Spiro-quinazolinone derivatives and their use as positive allosteric modulators of mGluR4” (Merck Patent GmbH, priority 2013, dated 2017).
